Reference: patent publication US6072057A, “1H-4(5)-cyclo-substituted imidazole derivatives as histamine H3 receptor agents” (Gliatech Inc., priority 1998, dated 2000)
Like-named read-outs stand apart in the source and are kept apart here.

How the values were obtained:
Histamine H3 receptor = target: T1, Histamine H3 receptor (Rattus norvegicus, UniProt Q9QYN8); assay: In Vitro Histamine H3 Receptor Binding Analysis ([3H]-Nα-methylhistamine, rat cortical membranes); details: pH 7.4, 25° C., 40 minutes
T1 construct: Rat cortices were mechanically homogenized; from tissue; host or cells: rat cerebral cortex membranes
Protocol: Histamine H3 receptor affinity was determined in rat cortical membranes using the H3 selective agonist ligand, [^3 H]-N^α -methylhistamine (78.9 Ci/mmole, DuPont NEN Research Products, Boston, Mass.) according to the method of West et al., (1990) Mol. Pharmacol. 38: 610-613 with modifications. Briefly, animals were sacrificed by decapitation and the cerebral cortex was rapidly removed. Rat cortices were mechanically homogenized with an Omni 1000 motor driven homogenizer in 10 volumes (wt/vol) of Krebs-Ringers Hepes buffer (pH 7.4) containing the following protease inhibitors; EDTA (10 mM), PMSF (0.1 mM), chymostatin (0.2 mg/50 mL) and leupeptin (0.2 mg/50 mL). The homogenate was centrifuged in a Sorvall at ~40,000× g for 30 min. […] Protein concentrations were determined by Coomassie Plus Protein Assay (Pierce, Rockford, Ill.).
The binding assay was carried out in polypropylene tubes in a total volume of 0.4 ml of 50 mM Na^+ Phosphate buffer (pH 7.4), containing 150-200 μg of tissue protein, 0.8-1.2 nM [^3 H]-N^α -methylhistamine and 0.3 to 10,000 nM GT-2016. […] Filters were transferred to polyethylene minivials and counted in 3.5 ml of scintillation fluid (Ecolume, ICN Biomedicals, Inc.). […] Saturation and competition experiments were analyzed with the ReceptorFit saturation and competition curve fittingprograms (Lundon Software, Inc., Cleveland, OH).

H3 histamine receptor = details: tested as a racemic mixture; cited from earlier work
[1] = intraventricular, rabbits; cited from earlier work
[2] = intraventricular, saline and pentobarbital-treated rats; cited from earlier work
H3 receptor [3] = details: cited from earlier work
H3 receptor [4] = details: cat (Lin et al., 1990); cited from earlier work
H3 receptor [5] = details: rats; cited from earlier work
[6] = tested on: synthesis and release of histamine; details: in vivo studies; cited from earlier work

T1 sequence (Q9QYN8 whole entry): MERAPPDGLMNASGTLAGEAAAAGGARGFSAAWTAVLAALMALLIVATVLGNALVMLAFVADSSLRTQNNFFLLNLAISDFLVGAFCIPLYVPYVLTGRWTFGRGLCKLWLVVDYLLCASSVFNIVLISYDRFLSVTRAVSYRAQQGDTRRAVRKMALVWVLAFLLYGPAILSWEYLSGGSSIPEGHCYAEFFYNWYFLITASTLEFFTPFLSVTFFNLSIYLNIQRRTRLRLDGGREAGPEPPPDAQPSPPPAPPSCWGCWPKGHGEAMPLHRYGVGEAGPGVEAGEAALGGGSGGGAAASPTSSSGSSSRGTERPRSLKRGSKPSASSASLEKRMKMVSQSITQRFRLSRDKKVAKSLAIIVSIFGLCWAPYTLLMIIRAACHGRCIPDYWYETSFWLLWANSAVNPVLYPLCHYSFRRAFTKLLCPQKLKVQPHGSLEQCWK

Q: For `NC1CCC(c2c[nH]cn2)CC1` (stereo not drawn), which Ki (Histamine H3 receptor) is on record?
A: The Ki was 20 nM.

Q: For `NC1CC1c1c[nH]cn1` (racemic) [2-(4-imidazoyl)-cyclopropylamine], which “H3 histamine receptor agonist activity” value (H3 histamine receptor) is on record?
A: The value was “moderate”.

Q: Which “arousal EEG pattern” value [1] does the source give for `NCCc1c[nH]cn1` [histamine] here?
A: Its value is “induces the appearances of an arousal EEG pattern”.

Q: What about the “spontaneous locomotor activity, grooming and exploratory behavior” value [2] of the same compound?
A: The value was “increased”.

Q: What about the “stimulation of the H3 autoreceptor” value (H3 receptor [3]) of the same compound?
A: Its value is “capable of stimulating this autoreceptor”.

Q: With `S=C(NC1CCCCC1)N1CCC(c2cnc[nH]2)CC1` [thioperamide] as the compound, how does the wakefulness (H3 receptor [4]) read?
A: Its wakefulness is “enhanced wakefulness in a dose-dependent fashion”.

Q: What about the “slow wave and REM sleep” value (H3 receptor [5]) of the same compound?
A: The value was “decrease slow wave and REM sleep”.

Q: What about the wakefulness (H3 receptor [5]) of the same compound?
A: Its wakefulness is “increase wakefulness”.

Q: And the “synthesis and release of histamine” value [6]?
A: Its value is “can increase”.
